# Test results taken from paper PMC5000588, “A Female-Biased Odorant Receptor from Apolygus lucorum (Meyer-Dür) Tuned to Some Plant Odors” (International Journal of Molecular Sciences, 2016).
# Target: T1, AlucOR46/Orco (Apolygus lucorum, UniProt A0A1Q1NIJ3)
# T1 construct: gene OR39; full-length ORF of AlucOR46 (1185 bp, 394 residues) in pT7Ts, cRNA co-injected with AlucOrco cRNA into Xenopus oocytes; OR/Orco heteromeric channel; with Odorant receptor coreceptor
# T1 sequence (A0A1Q1NIJ3 1-394): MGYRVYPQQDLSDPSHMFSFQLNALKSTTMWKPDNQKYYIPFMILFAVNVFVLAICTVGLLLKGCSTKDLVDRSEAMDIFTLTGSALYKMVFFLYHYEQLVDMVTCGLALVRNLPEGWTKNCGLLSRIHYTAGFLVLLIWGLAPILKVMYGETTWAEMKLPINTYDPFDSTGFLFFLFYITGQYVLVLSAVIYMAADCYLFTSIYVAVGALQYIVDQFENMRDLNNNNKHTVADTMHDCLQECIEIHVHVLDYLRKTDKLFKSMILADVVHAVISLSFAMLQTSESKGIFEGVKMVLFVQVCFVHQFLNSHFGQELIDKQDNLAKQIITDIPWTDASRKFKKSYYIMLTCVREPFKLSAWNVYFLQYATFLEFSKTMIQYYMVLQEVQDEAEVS
# T1 sequence (V9TQK7 1-471 partner): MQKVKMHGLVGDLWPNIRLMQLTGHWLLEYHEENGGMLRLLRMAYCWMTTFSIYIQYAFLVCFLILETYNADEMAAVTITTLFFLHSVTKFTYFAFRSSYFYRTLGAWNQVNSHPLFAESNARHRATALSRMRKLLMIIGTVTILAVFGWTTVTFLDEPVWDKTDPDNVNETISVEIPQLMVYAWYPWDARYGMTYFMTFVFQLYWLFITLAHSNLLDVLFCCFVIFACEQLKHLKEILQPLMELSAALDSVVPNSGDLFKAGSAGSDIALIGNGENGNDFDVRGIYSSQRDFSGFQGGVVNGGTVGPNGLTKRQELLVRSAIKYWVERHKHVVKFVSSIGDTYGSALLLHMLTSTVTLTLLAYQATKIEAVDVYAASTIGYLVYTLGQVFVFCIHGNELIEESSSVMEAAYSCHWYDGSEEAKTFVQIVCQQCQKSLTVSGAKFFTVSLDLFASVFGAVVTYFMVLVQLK
# Assay: two-electrode voltage clamp, Xenopus oocytes, inward current at a single concentration
# Format: cell-based
# Conditions: agonist; 10^−4 M odorant; coexpressed with AlucOrco; 1× Ringer's buffer pH 7.6
row,Compound,inward current response at 10^-4 M
1,C=C(C)[C@H]1CC=C(C)CC1 [(R)-(+)-Limonene],"Only six compounds: (S)-(−)-Limonene, (R)-(+)-Limonene"
2,C=C(C)[C@@H]1CC=C(C)CC1 [(S)-(−)-Limonene],"Only six compounds: (S)-(−)-Limonene, (R)-(+)-Limonene"

# Target: T1, AlucOR46/Orco
# Assay: two-electrode voltage clamp, Xenopus oocytes, inward current dose-response
# Format: cell-based
# Conditions: not given
# From the text: two-electrode voltage clamp, Xenopus oocytes, inward current dose-response on AlucOR46/Orco
row,Compound,EC50 [µM]
1,CCCCCCCO [1-Heptanol],13.8
2,CC1(C)[C@H]2CC=C(CO)[C@@H]1C2 [(1R)-(−)-Myrtenol],74.4
3,CCC/C=C/C=O [(E)-2-Hexenal],37.1
4,CC/C=C/CCO [(E)-3-Hexenol],25.3
